Measurements reported in publication PMC7618597, “Dual Nurr1/RXR agonism of valerenic acid and synthetic mimetics enables dimer-selective Nurr1 modulation” (ACS medicinal chemistry letters, 2025).
“And” between values parts separate entries of the source, which are not always exact repeats. Equal entries are not always repeated.

Experiments:
[1] = molecular target: T1, Nurr1 LBD (Homo sapiens, UniProt P43354); assay: Isothermal titration calorimetry, recombinant Nurr1 LBD; type: binding; conditions: ITC
T1 construct: made in house
T1 sequence (P43354 360-595 limits assumed): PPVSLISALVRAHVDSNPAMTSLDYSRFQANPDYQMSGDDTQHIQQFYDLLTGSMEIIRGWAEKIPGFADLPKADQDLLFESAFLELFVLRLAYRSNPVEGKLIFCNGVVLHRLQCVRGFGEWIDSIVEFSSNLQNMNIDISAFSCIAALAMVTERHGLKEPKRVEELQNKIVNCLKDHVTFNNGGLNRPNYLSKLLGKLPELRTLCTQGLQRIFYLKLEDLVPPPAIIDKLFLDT
Procedure: Isothermal titration calorimetry. ITC experiments for ligand binding to Nurr1 and RXR were conducted on an Affinity ITC instrument (TA Instruments, New Castle, DE) at 25 °C with a stirring rate of 75 rpm using recombinantly expressed ligand binding domain proteins as described previously5,6. The respective LBD protein (12–25 μM) in buffer (20 mM Tris pH 7.5, 100 mM NaCl, 5% glycerol) containing 2-4% DMSO was titrated with the test compounds (100-150 μM in the same buffer containing 2-4% DMSO) in 21–26 injections (1 × 1 μL and 20 × 4 to 25 × 4 μL) with an injection interval of 120 s. As control experiments, the test compounds were titrated to the buffer, and the buffer was titrated to the protein under otherwise identical conditions. The heat rates of the compound-Nurr1 LBD titrations were analyzed using NanoAnalyze software (TA Instruments, New Castle, DE) with an independent binding model.

[2] = molecular target: T2, full-length Nurr1 homodimer (NurRE) (Homo sapiens, UniProt P43354); assay: Full-length Nurr1 reporter gene assay, homodimer response element NurRE; type: cell-based
T2 construct: full-length human nuclear receptor Nurr1 encoded by pcDNA3.1 -hNurr1-NE; host or cells: HEK293T
T2 sequence (P43354 whole entry): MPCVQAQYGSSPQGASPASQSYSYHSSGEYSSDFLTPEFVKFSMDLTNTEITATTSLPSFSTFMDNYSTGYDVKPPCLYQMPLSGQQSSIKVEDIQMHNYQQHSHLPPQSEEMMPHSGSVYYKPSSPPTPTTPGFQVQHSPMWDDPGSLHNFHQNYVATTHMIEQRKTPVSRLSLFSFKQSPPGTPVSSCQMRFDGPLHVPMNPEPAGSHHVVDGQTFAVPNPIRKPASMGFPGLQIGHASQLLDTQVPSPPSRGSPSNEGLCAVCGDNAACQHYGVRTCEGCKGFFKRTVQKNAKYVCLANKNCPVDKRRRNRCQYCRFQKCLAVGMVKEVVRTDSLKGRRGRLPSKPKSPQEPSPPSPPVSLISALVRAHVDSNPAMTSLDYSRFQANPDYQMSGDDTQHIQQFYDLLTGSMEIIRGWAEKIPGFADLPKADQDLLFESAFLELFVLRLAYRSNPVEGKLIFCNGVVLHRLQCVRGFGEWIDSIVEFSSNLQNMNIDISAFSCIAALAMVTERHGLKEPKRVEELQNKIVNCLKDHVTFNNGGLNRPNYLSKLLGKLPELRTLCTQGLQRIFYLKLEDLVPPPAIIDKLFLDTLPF
Procedure: Based on these findings, we next determined the effects of 2 and 3 on Nurr1 activity in a cellular setting using reporter constructs for the NGFI-B response element (NBRE), the Nur response element (NurRE), and the direct repeat 5 (DR5)[36]. All three response elements are robustly activated by common Nurr1 agonists[4],[31]. […]
Reporter gene assays for full-length human Nurr1 and RXR. Modulation of full-length human Nurr1 (NR4A2) was studied using pRL-SV40 (1.5 ng/well reporter plasmid) and the previously described4 reporter plasmids pFR-Luc-NBRE (100 ng/well reporter plasmid), pFR-Luc-NurRE (50 ng/well reporter plasmid) or pFR-Luc-DR5 (50 ng/well reporter plasmid). […] Five hours after transfection, the cells wer e incubated with the test compounds in Opti-MEM supplemented with penicillin (100 U/mL), streptomycin (100 μg/mL), and 0.1% DMSO for 15 h before luciferase activity was measured using the Dual-Glo Luciferase Assay System (Promega) according to the manufacturer’s protocol on a Tecan Spark luminometer (Tecan Deutschland GmbH, Germany). Firefly luminescence was divided by Renilla luminescence and multiplied by 1000, resulting in relative light units (RLU) to normalize for transfection efficiency and cell growth. […]

[3] = molecular target: T3, Nurr1 (Homo sapiens, UniProt P43354); assay: Gal4-hybrid reporter gene assay, Nurr1; type: cell-based; conditions: Gal4-hybrid reporter gene assay; for max. act. (Nurr1): max. fold activation; for EC50: mean±S.E.M., n≥3
T3 construct: pFA-CMV-hNurr1-LBD; expressed in transfected cells; host or cells: HEK293T
T3 sequence (P43354 360-595 limits assumed): as the sequence (P43354 360-595 limits assumed) above
Procedure: modified Eagle’s medium (DMEM), high glucose supplemented with 10% fetal calf serum (FCS), sodium pyruvate (1 mM), penicillin (100 U/mL), and streptomycin (100 μg/mL) at 37 °C and 5% CO2 and seeded in 96-well plates (3×10^4 cells/well). After 24 h, the medium was changed to Opti-MEM without supplements, and the cells were transiently transfected using Lipofectamine LTX reagent (Invitrogen) according to the manufacturer’s protocol. Five hours after transfection, the cells were incubated with the test compounds in Opti-MEM supplemented with penicillin (100 U/mL), streptomycin (100 μg/mL), and 0.1% DMSO for 15 h before luciferase activity was measured using the Dual -Glo Luciferase Assay System (Promega) according to the manufacturer’s protocol on a Tecan Spark l uminometer (Tecan Deutschland GmbH, Germany). Firefly luminescence was divided by Renilla luminescence and multiplied by 1000, resulting in relative light units (RLU) to normalize for transfection efficiency and cell growth. Fold activation was obtained by dividing the mean RLU of a sample by the mean RLU of the untreated control. All samples were tested in at least three biologically independent experiments in duplicates. For dose –response curve fitting and calculation of EC50 values, the equation “[Agonist] vs. response – Variable slope (four parameters)” was used in GraphPad Prism (version 5.04, GraphPad Software, La Jolla, CA, USA). […] (10 μM, NR4A) and bexarotene (1 µM, NR2B) served as the positive control. […]
150 μM in the same buffer containing 2-4% DMSO) in 21–26 injections (1 × 1 μL and 20 × 4 to 25 × 4 μL) with an injection interval of 120 s. As control experiments, the test compounds were titrated to the buffer, and the buffer was titrated to the protein under otherwise identical conditions. The heat rates of the compound-Nurr1 LBD titrations were analyzed using NanoAnalyze software (TA Instruments, New Castle, DE) with an independent binding model.

Structure (SMILES) | Kd [1] [nM] | activation on NurRE [2] | max. act. (Nurr1) [3] | EC50 [3] [nM]
Cc1c2c(n(-c3ccc(CC(=O)O)cc3)c1C)CCC(F)(F)C2 [compound 2] | 600 | no activation was detectable | 3.3 fold and 3.3±0.1 fold | 2600 ± 400
Cc1c(C)n(-c2ccc(CC(=O)O)cc2)c2ccc(F)cc12 [compound 3] | 600 | no activation was detectable | 4.3±0.5 fold | 2200 ± 900
